{"source": "patent US6610297B1", "about": "“Peptide immunogens for vaccination against and treatment of allergy” (Novartis AG, priority 1996, dated 2003)", "origin": "cited, not measured here", "target": "T1, FcεRI (Homo sapiens, UniProt P12319)", "T1 sequence (P12319 26-257)": "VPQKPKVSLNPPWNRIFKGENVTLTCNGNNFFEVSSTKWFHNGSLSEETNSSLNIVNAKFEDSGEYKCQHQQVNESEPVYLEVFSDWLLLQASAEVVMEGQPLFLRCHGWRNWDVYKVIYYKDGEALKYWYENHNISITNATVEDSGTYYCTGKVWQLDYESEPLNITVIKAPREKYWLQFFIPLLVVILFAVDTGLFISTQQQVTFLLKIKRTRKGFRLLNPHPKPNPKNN", "conditions": "read-out: affinity of IgE for FcεRI (Kd); cited from earlier work"}
{"substance": "immunoglobulin E [IgE]", "values": [{"measurement": "Kd", "value": "~0.1", "unit": "nM"}]}
